Test results taken from ChEMBL document CHEMBL1124659 (J Med Chem, 1989).
One block for each compound: values may come before it.

What was measured:
Rattus norvegicus [1] = species on record: Rattus norvegicus; assay: Agonistic activity in rat uterine preparations; assay type: functional
Angiotensin II receptor [2] = target: T1, Angiotensin II receptor (Rattus norvegicus, UniProt P29089+P25095+P35351); assay: Tested for inhibition of radioligand [Sar1,Ile5,8]AII binding to angiotensin II receptor in rat uterus
T1 sequence (P29089 whole entry): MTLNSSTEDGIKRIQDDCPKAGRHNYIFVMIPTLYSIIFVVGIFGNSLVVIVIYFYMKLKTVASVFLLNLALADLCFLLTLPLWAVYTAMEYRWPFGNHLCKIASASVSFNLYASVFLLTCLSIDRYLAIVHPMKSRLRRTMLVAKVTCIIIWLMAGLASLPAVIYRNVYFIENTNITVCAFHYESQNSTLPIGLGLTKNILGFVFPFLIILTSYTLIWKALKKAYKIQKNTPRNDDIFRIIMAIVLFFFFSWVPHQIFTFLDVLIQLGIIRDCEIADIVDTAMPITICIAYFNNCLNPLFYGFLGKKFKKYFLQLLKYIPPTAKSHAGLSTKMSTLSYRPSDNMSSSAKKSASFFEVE
T1 sequence (P25095 whole entry): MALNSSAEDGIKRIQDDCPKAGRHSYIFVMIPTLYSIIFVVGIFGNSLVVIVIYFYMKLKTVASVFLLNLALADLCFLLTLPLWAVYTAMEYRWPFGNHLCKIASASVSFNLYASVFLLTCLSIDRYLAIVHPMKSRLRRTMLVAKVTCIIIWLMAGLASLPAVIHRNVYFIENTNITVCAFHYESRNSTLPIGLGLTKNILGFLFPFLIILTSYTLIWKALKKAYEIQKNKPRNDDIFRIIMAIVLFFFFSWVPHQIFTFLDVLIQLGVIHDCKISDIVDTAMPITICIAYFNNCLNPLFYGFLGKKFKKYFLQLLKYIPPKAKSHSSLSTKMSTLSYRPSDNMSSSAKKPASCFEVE
T1 sequence (P35351 whole entry): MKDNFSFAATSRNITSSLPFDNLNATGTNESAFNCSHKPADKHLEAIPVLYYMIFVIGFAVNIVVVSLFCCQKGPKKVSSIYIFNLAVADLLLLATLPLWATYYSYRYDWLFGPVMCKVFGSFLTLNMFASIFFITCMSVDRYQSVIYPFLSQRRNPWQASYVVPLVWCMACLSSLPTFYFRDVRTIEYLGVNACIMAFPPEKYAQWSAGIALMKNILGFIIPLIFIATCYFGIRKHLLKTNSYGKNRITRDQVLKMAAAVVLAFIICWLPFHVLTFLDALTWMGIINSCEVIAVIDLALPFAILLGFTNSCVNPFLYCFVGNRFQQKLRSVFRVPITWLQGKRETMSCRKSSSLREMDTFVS

Angiotensin II receptor [3] = target: T1, Angiotensin II receptor; assay: Tested for inhibition of radioligand [Sar1,Ile5,8]AII binding to angiotensin II receptor in rat brain; assay type: tissue-based
Rattus norvegicus [4] = species on record: Rattus norvegicus; assay: Inhibitory activity was determined in rat uterine preparations at a compound dose of 4 ng/mL; assay type: functional
Rattus norvegicus [5] = species on record: Rattus norvegicus; assay: Inhibitory activity was determined in rat uterine preparations at a compound dose of 2 ng/mL; assay type: functional
Rattus norvegicus [6] = species on record: Rattus norvegicus; assay: Inhibitory activity was determined in rat uterine preparations at a compound dose of 6 ng/mL; assay type: functional
Rattus norvegicus [7] = species on record: Rattus norvegicus; assay: Time period for the pressor response of angiotensin II to return to 50% of its treatment level at a compound dose of 30 ug; assay type: functional, organism-based
Rattus norvegicus [8] = species on record: Rattus norvegicus; assay: Time period for the pressor response of angiotensin II to return to 50% of its treatment level at a compound dose of 10 ug; assay type: functional, organism-based
[9] = target: T2, Angiotensin II receptor (Rattus norvegicus) (UniProt P29089+P25095+P35351); assay: Inhibitory activity was determined against Angiotensin II receptor in rat uterine preparations at a compound dose of 6 ng/mL
[10] = target: T2, Angiotensin II receptor (Rattus norvegicus); assay: Inhibitory activity was determined against Angiotensin II receptor in rat uterine preparations at a compound dose of 2 ng/mL
[11] = target: T2, Angiotensin II receptor (Rattus norvegicus); assay: Inhibitory activity was determined against Angiotensin II receptor in rat uterine preparations at a compound dose of 4 ng/mL
Rattus norvegicus [12] = species on record: Rattus norvegicus; assay: Time period for the pressor response of angiotensin II to return to 50% of its treatment level at a compound dose of 60 ug; assay type: functional, organism-based

Compound: CNCC(=O)N[C@@H](CCCN=C(N)N)C(=O)N[C@H](C(=O)N[C@@H](Cc1ccc(O)cc1)C(=O)N[C@H](C(=O)N[C@@H](Cc1c[nH]cn1)C(=O)N1CCC[C@H]1C(=O)N[C@H](C(=O)O)C(c1ccccc1)c1ccccc1)C(C)C)C(C)C [listing 1 of 2 here]
- Activity (Rattus norvegicus [1]): 284%

- Ki (Angiotensin II receptor [2]): 0.74 nM
- Ki (Angiotensin II receptor [3]): 0.46 nM
Compound: CNCC(=O)N[C@@H](CCCN=C(N)N)C(=O)N[C@H](C(=O)N[C@@H](Cc1ccc(O)cc1)C(=O)N[C@H](C(=O)N[C@@H](Cc1c[nH]cn1)C(=O)N1CCC[C@H]1C(=O)N[C@H](Cc1ccc(-c2ccccc2)cc1)C(=O)O)C(C)C)C(C)C [listing 1 of 2 here]

Compound: CNCC(=O)N[C@@H](CCCN=C(N)N)C(=O)N[C@H](C(=O)N[C@@H](Cc1ccc(O)cc1)C(=O)N[C@H](C(=O)N[C@@H](Cc1c[nH]cn1)C(=O)N1CCC[C@H]1C(=O)N[C@@H](C(=O)O)C(c1ccccc1)c1ccccc1)C(C)C)C(C)C [listing 1 of 2 here]
- Activity (Rattus norvegicus [1]): 48%

- Ki (Angiotensin II receptor [2]): 52.8 nM
- Ki (Angiotensin II receptor [3]): 9310 nM
Compound: CNCC(=O)N[C@@H](CCCN=C(N)N)C(=O)N[C@H](C(=O)N[C@@H](Cc1ccc(O)cc1)C(=O)N[C@H](C(=O)N[C@@H](Cc1c[nH]cn1)C(=O)N1CCC[C@H]1C(N)=O)C(C)C)C(C)C

- Ki (Angiotensin II receptor [2]): 1.23 nM
- Ki (Angiotensin II receptor [3]): 0.85 nM
Compound: CNCC(=O)N[C@@H](CCCN=C(N)N)C(=O)N[C@H](C(=O)N[C@@H](Cc1ccc(O)cc1)C(=O)N[C@H](C(=O)N[C@@H](Cc1c[nH]cn1)C(=O)N1CCC[C@H]1C(=O)N[C@H](C(=O)O)C(c1ccccc1)c1ccccc1)C(C)C)C(C)C [listing 2 of 2 here]

- Ki (Angiotensin II receptor [2]): 1.52 nM
- Ki (Angiotensin II receptor [3]): 1.82 nM
Compound: CNCC(=O)N[C@@H](CCCN=C(N)N)C(=O)N[C@H](C(=O)N[C@@H](Cc1ccc(O)cc1)C(=O)N[C@H](C(=O)N[C@@H](Cc1c[nH]cn1)C(=O)N1CCC[C@H]1C(=O)NC1(C(=O)O)Cc2ccccc2C1)C(C)C)C(C)C [listing 1 of 2 here]

- Ki (Angiotensin II receptor [2]): 1.74 nM
- Ki (Angiotensin II receptor [3]): 1 nM
Compound: CNCC(=O)N[C@@H](CCCN=C(N)N)C(=O)N[C@H](C(=O)N[C@@H](Cc1ccc(O)cc1)C(=O)N[C@H](C(=O)N[C@@H](Cc1c[nH]cn1)C(=O)N1CCC[C@H]1C(=O)N[C@@H](Cc1ccc(-c2ccccc2)cc1)C(=O)O)C(C)C)C(C)C [listing 1 of 2 here]

- Ki (Angiotensin II receptor [2]): 5.48 nM
- Ki (Angiotensin II receptor [3]): 1.64 nM
Compound: H-NRVYVHPF-OH [ANGIOTENSIN AMIDE]
- Activity (Rattus norvegicus [1]): 100%

Compound: CNCC(=O)N[C@@H](CCCN=C(N)N)C(=O)N[C@H](C(=O)N[C@@H](Cc1ccc(O)cc1)C(=O)N[C@H](C(=O)N[C@@H](Cc1c[nH]cn1)C(=O)N1CCC[C@H]1C(=O)NC1(C(=O)O)Cc2ccccc2C1)C(C)C)C(C)C [listing 2 of 2 here]
- Activity (Rattus norvegicus [4]): 16.2
- Activity (Rattus norvegicus [5]): 8.7
- Activity (Rattus norvegicus [6]): 31.8

- Ki (Angiotensin II receptor [2]): 6.08 nM
- Ki (Angiotensin II receptor [3]): 1.64 nM
Compound: CNCC(=O)N[C@@H](CCCN=C(N)N)C(=O)N[C@H](C(=O)N[C@@H](Cc1ccc(O)cc1)C(=O)N[C@H](C(=O)N[C@@H](Cc1c[nH]cn1)C(=O)N1CCC[C@H]1C(=O)N[C@@H](C(=O)O)C(c1ccccc1)c1ccccc1)C(C)C)C(C)C [listing 2 of 2 here]

Compound: CNCC(=O)N[C@@H](CCCN=C(N)N)C(=O)N[C@H](C(=O)N[C@@H](Cc1ccc(O)cc1)C(=O)N[C@H](C(=O)N[C@@H](Cc1c[nH]cn1)C(=O)N1CCC[C@H]1C(=O)N[C@@H](Cc1ccc(-c2ccccc2)cc1)C(=O)O)C(C)C)C(C)C [listing 2 of 2 here]
- Activity (Rattus norvegicus [4]): 71.7
- Activity (Rattus norvegicus [5]): 9.2
- Activity (Rattus norvegicus [6]): 208.2

- Activity [9]: 22.2
- Activity [10]: 1.7
- Activity [11]: 3.9
Compound: CNCC(=O)N[C@@H](CCCN=C(N)N)C(=O)N[C@H](C(=O)N[C@@H](Cc1ccc(O)cc1)C(=O)N[C@H](C(=O)N[C@@H](Cc1c[nH]cn1)C(=O)N1CCC[C@@H]1C(=O)N[C@H](CC(C)C)C(=O)O)C(C)C)C(C)C
- Recovery time (Rattus norvegicus [7]): 72 min
- Recovery time (Rattus norvegicus [8]): 34 min
- Recovery time (Rattus norvegicus [12]): 83 min

Compound: CNCC(=O)N[C@@H](CCCN=C(N)N)C(=O)N[C@H](C(=O)N[C@@H](Cc1ccc(O)cc1)C(=O)N[C@H](C(=O)N[C@@H](Cc1c[nH]cn1)C(=O)N1CCC[C@H]1C(=O)N[C@H](Cc1ccc(-c2ccccc2)cc1)C(=O)O)C(C)C)C(C)C [listing 2 of 2 here]
- Activity (Rattus norvegicus [4]): 24.6
- Activity (Rattus norvegicus [5]): 7.2
- Activity (Rattus norvegicus [6]): 44.7
